Measured values published in patent US8975415B2, “Chromane compounds” (CoMentis, Inc., priority 2012, dated 2015).

Columns and labels:
BACE1 [1] = molecular target: T1, BACE1 (Homo sapiens (Human), UniProt P56817); assay: Measurement of BACE1 inhibition by time resolved fluorescence resonance energy transfer (TR-FRET); type: biochemical; details: Eu-CEVNLDAEFK-QSY 7 substrate, read-out: Test Example 2 IC50
Target sequence in this assay (P56817 75-416): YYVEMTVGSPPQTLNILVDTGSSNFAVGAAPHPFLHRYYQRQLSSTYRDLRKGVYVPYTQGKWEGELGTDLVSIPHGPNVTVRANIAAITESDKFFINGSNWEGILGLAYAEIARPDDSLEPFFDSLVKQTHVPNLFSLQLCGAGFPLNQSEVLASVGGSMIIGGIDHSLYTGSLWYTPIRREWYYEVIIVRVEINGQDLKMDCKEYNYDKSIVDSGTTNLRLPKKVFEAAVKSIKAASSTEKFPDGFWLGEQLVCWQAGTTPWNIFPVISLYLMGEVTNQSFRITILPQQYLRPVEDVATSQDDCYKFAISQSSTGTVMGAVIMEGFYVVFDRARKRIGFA
Method: If the sample contains BACE1 activity, the Eu chelate and the quencher will be separated as the substrate is cleaved. The Eu-signal increases and it can be measured by time-resolved fluorometry, EnVision™, 30 minutes after the substrate (final concentration 300 nM) was added.

BACE1 [2] = molecular target: T1, BACE1; assay: Measurement of Aβ production inhibition in cell (SK-N-BE(2) neuroblastoma cells, Aβ40 ELISA); details: Test Example 3 IC50, Aβ40 production, SK-N-BE(2) cells, 6 hours
Target sequence in this assay (P56817 46-501): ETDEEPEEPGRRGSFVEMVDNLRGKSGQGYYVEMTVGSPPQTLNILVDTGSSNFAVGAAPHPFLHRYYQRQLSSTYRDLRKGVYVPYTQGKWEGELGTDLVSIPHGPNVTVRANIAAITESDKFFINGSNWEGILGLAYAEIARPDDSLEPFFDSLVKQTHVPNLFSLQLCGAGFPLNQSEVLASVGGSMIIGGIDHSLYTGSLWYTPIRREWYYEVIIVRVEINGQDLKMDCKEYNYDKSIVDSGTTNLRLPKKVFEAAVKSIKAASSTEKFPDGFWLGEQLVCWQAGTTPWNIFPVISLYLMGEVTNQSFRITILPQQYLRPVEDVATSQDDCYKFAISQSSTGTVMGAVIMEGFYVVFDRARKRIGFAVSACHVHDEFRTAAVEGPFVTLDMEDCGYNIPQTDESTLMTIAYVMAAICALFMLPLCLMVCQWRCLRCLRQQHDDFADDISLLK

BACE1 [3] = molecular target: T1, BACE1; assay: Measurement of BACE1 inhibition by fluorescence resonance energy transfer (FRET), MCA substrate; details: read-out: Test Example 1 IC50; FRET, MCA-SEVNLDAEFK(DNP)-NH2 substrate, pH 4.4
Target sequence in this assay (P56817 75-416): as the sequence (P56817 75-416) above

Structure (SMILES) | IC50 (BACE1 [1]) [nM] | IC50 (BACE1 [2]) [nM] | IC50 (BACE1 [3]) [nM]
CC#Cc1cc(-c2ccc3c(c2)C2(COC(N)=N2)C2(COC2)CO3)ccn1 (stereo not drawn) [RP 20] | 2710 | 580 | 
CC#Cc1cc(-c2ccc3c(c2)C2(COC(N)=N2)C2(COC2)CO3)ncn1 (stereo not drawn) [RP 21] | 1350 | 410 | 
CC#Cc1cncc(-c2ccc3c(c2)C2(COC(N)=N2)C2(COC2)CO3)n1 (stereo not drawn) [RP 22] | 2600 | 2900 | 
COc1ccnc(-c2ccc3c(c2)C2(COC(N)=N2)C2(COC2)C(C)(C)O3)c1 (stereo not drawn) [RP 65, 6′-(4-methoxypyridin-2-yl)-2′,2′-dimethyldispiro[1,3-oxazole-4,4′-chromene-3′,3″-oxetan]-2-amine] | 388 | 49 | 
CC1(C)Oc2ccc(-c3cc(F)ccn3)cc2C2(COC(N)=N2)C12COC2 (stereo not drawn) [RP 149] | 1590 | 1100 | 
CC1(C)Oc2ccc(-c3cncc(Cl)n3)cc2C2(COC(N)=N2)C12COC2 (stereo not drawn) [RP 150] | 759 | 450 | 
COc1ncc(Cl)cc1-c1ccc2c(c1)C1(COC(N)=N1)C1(COC1)C(C)(C)O2 (stereo not drawn) [RP 155] | 786 | 630 | 
CC1(C)Oc2ccc(-c3cnc4[nH]ccc4c3)cc2C2(COC(N)=N2)C12COC2 (stereo not drawn) [RP 168] | 760 | 310 | 
CC1(C)Oc2ccc(-c3cc(C#N)ccc3F)cc2C2(COC(N)=N2)C12COC2 (stereo not drawn) [RP 170] | 588 | 400 | 1000
CNC(=O)c1cc(F)cc(-c2ccc3c(c2)C2(COC(N)=N2)C2(COC2)C(C)(C)O3)c1 (stereo not drawn) [RP 171] | 3040 | 3100 | 2240
CC1(C)Oc2ccc(-c3cncc(Cl)c3)cc2C2(COC(N)=N2)C12COC2 (stereo not drawn) [RP 173] | 239 | 73 | 401
CC1(C)Oc2ccc(-c3ccc4[nH]ccc4c3)cc2C2(COC(N)=N2)C12COC2 (stereo not drawn) [RP 174, 6′-(1H-indol-5-yl)-2′,2′-dimethyldispiro[1,3-oxazole-4,4′-chromene-3′,3″-oxetan]-2-amine] | 2180 | 3400 | 3350
CC1(C)Oc2ccc(-c3cccc4cc[nH]c34)cc2C2(COC(N)=N2)C12COC2 (stereo not drawn) [RP 175] | 1550 |  | 3230
CC1(C)Oc2ccc(-c3cccc4[nH]ncc34)cc2C2(COC(N)=N2)C12COC2 (stereo not drawn) [RP 176] | 994 | 850 | 
CC1(C)Oc2ccc(-c3ccc4[nH]ncc4c3)cc2C2(COC(N)=N2)C12COC2 (stereo not drawn) [RP 177] | 2120 | 1500 | 
CC1(C)Oc2ccc(-c3ccc4nonc4c3)cc2C2(COC(N)=N2)C12COC2 (stereo not drawn) [RP 178] | 747 | 810 | 1150
CC1(C)Oc2ccc(-c3cccc4cccnc34)cc2C2(COC(N)=N2)C12COC2 (stereo not drawn) [RP 179] | 2060 | 1400 | 3240
CC1(C)Oc2ccc(-c3cccc4cnccc34)cc2C2(COC(N)=N2)C12COC2 (stereo not drawn) [RP 180] | 1770 | 490 | 2030
COC/C=C/c1ccc2c(c1)C1(COC(N)=N1)C1(COC1)C(C)(C)O2 (stereo not drawn) [RP 181] | 2130 | 820 | 2590
CC1(C)Oc2ccc(-c3ccc4c(c3)OCO4)cc2C2(COC(N)=N2)C12COC2 (stereo not drawn) [RP 182] | 1450 | 2500 | 
CC1(C)Oc2ccc(-c3cccc(OC(F)(F)F)c3)cc2C2(COC(N)=N2)C12COC2 (stereo not drawn) [RP 183] | 880 |  | 1080
CC1(C)Oc2ccc(-c3ccccc3OC(F)(F)F)cc2C2(COC(N)=N2)C12COC2 (stereo not drawn) [RP 184] | 2720 |  | 2820
CC1(C)Oc2ccc(-c3c(F)ccc(F)c3F)cc2C2(COC(N)=N2)C12COC2 (stereo not drawn) [RP 185] | 1270 | 760 | 2050
CC1(C)Oc2ccc(-c3ccc(OC(F)F)cc3)cc2C2(COC(N)=N2)C12COC2 (stereo not drawn) [RP 187] | 1920 |  | 3160
